Converted amounts (≈) assume the structure as drawn. “Also recorded” adds a separate entry of the source.
How the values were obtained:
[1] = tested on: Aggregatibacter actinomycetemcomitans biofilms on titanium implants; assay: Rat jawbone peri-implant osteomyelitis model, second animal experiment; settings: for reduction of mean CFU/gram of tissue versus control (in words): single high dose 10 mg/kg, 10 mg/kg
S. aureus 6538 = assay: Preventative assay, HA spherules pretreated then inoculated with S. aureus; type: cell-based, Staphylococcus aureus
Protocol: Preventative ability of BP-ciprofloxacin conjugate to inhibit S. aureus 6538 adherence to HA spherules: Various BP-ciprofloxacin concentrations were introduced to HA powder (spherules) suspended in TSB microbiological medium. Solutions containing conjugate and HA spherules were introduced to wells of 24-well plates. Final concentrations of powder were 10 mg/1 mL, while final concentrations of the conjugate were 0.12-250 mg/L. Suspensions were left for 24 h/37° C./shaking. After 24 h, suspensions were removed from the wells and impulse-centrifuged to precipitate HA powder. Next, supernatant was very gently discarded and a fresh 1 mL of S. aureus of density 10^5 cfu/mL was introduced to the HA spherules. Subsequently, this solution was shaken, absorbance was measured using 580 nm wavelength and left for 24 h/37° C./shaking. After incubation absorbance was measured again and values from 0 hr and 24 hrs were compared to assess reduction of bacterial growth with regard to control sample one (bacterial suspension but no spherules) and control sample two (bacterial suspension+spherules but with no conjugate added). Additionally, solutions were impulse-centrifuged, supernatant was gently discarded, while bacteria-containing HA spherules were culture plated as before and quantitatively assessed. […]

[2] = tested on: Aggregatibacter actinomycetemcomitans (Aa; wild-type rough strain D7S-1; serotype a); assay: MIC assay on Aa; type: cell-based
Description: (§1) Since this BP-ciprofloxacin conjugate is novel and has not been tested in vivo, we performed an initial safety and efficacy study in an animal model of peri-implant osteomyelitis. This model is a unique in-house jawbone peri-implant osteomyelitis model that was developed specifically for translational value to study biofilm-mediated disease and host response in vivo (Freire, et al, Development of animal model for Aggregatibacter actinomycetemcomitans biofilm-mediated oral osteolytic infection: a preliminary study. J Periodontol 2011; 82:778-89). […] After biofilms are established on the implants in vitro, they are surgically transferred to the jawbone of each rat. Animals are anesthetized, the cheeks are retracted and a transmucosal osteotomy is performed so implants can be manually inserted into the osteotomy and secured. Two biofilm-inoculated implants are placed in each rat (n=12 rats and 24 implants) in the palatal bone bilaterally.
Subsequently, the plate was incubated for 24 h/37° C. in a shaker to obtain optimal conditions for microbial growth and to prevent bacteria from forming biofilms. After incubation, the absorbance was measured once again. The following control samples were established: negative control sample one: sterile medium without microbes; negative control sample two: sterile medium without microbes implemented with DMSO (dimethyl sulfoxide, Sigma-Aldritch) to final concentration of 1% (v/v); positive control sample one: medium+microbes with no compound tested; positive control sample two: medium+microbes with no compound tested but implemented with DMSO to final concentration of 1% (v/v). […] To assess relative number of cells, the following calculations were performed. […] Next, the relative number of cells subjected to incubation with tested compounds were counted as follows: […].
After biofilms were established on the implants in vitro, they were surgically transferred to the jawbone of each rat. […]

[3] = tested on: Aggregatibacter actinomycetemcomitans (Aa; wild-type rough strain D7S-1; serotype a); assay: Disc diffusion inhibition zone assay on Aa; type: cell-based
Description: as §1
Next, inhibition zones were recorded using a ruler.
After biofilms were established on the implants in vitro, they were surgically transferred to the jawbone of each rat. For surgery, animals were anesthetized with 4% isoflurane inhalant initially followed by intraperitoneal injection of ketamine (80-90 mg/kg) plus xylazine (5-10 mg/kg). Then local anesthesia was given via infiltration injection of bupivicaine 0.25% at the surgical site. […]

Structure (SMILES)	peri-implant inflammation at resection (in words) ([1]; majority of animals in the treatment groups)	significance of CFU reduction versus control (in words) ([1]; multiple low dose 0.3 mg/kg 3×/week)	kill of Aa in peri-implant tissue ([1]; single dose 10 mg/kg)	reduction of mean CFU/gram of tissue versus control (in words) [1]	reduction of mean CFU/gram of tissue versus control (in words) ([1]; listed as BCC)	concentration giving the only significant reduction (S. aureus 6538) [µg/mL]	MIC90 ([2]; Example 1) [mg/L]	MIC90 ([2]; Example 5) [mg/L]	MIC90 ([2]; Example 6) [mg/L]	disc diffusion inhibition zone diameters [3] [mm]
O=C(O)c1cn(C2CC2)c2cc(N3CCN(C(=O)Oc4ccc(CC(P(=O)(O)O)P(=O)(O)O)cc4)CC3)c(F)cc2c1=O [Compound 6, 1-cyclopropyl-7-(4-((4-(2,2-diphosphonoethyl)phenoxy)carbonyl)piperazin-1-yl)-6-fluoro-4-oxo-1,4-dihydroquinoline-3-carboxylic acid]	non-inflamed peri-implant tissues	not for the multiple low dose group	approximately 6 log units	revealed significance for the single high dose of 6 treatment as compared to the control; also recorded: greatest CFU reduction and efficacy was observed at the single high dose; also recorded: greatest efficacy was observed at a single high dose	greatest efficacy and was highly statistically significant; also recorded: greatest efficacy was again observed at a single high dose	–	–	–	–	–
O=C(O)c1cn(C2CC2)c2cc(N3CCNCC3)c(F)cc2c1=O [ciprofloxacin, reference compound]	–	–	–	–	–	400	2 (≈ 6.04 µM)	2 (≈ 6.04 µM)	2000 (≈ 6040 µM)	> 40

Reference: patent US12624057B2, “Bisphosphonate quinolone conjugates and uses thereof” (BIOVINC, LLC, priority 2016, dated 2026)
